Results taken from patent US20120142601A1, “Modified Peptides and Uses Thereof” (MUSC Foundation for Research Development, priority 2009, published 2012).
pKd: −log10 of the molar value. Non-standard residues stand in square brackets, D forms with d. Residues, ends and D or L forms follow the SMILES beside them. No end group written: not given here. *: point of attachment. NMeR = CN[C@@H](CCCNC(=N)N)C(=O)O; Tle = CC(C)(C)[C@H](N)C(=O)O; X1 = C[C@@H](CCCCCN)C(=O)*

Legend:
NTR1 = NTR1 (Homo sapiens, UniProt P30989); conditions: cited from earlier work
Chain of NTR1 (P30989 whole entry, species assumed): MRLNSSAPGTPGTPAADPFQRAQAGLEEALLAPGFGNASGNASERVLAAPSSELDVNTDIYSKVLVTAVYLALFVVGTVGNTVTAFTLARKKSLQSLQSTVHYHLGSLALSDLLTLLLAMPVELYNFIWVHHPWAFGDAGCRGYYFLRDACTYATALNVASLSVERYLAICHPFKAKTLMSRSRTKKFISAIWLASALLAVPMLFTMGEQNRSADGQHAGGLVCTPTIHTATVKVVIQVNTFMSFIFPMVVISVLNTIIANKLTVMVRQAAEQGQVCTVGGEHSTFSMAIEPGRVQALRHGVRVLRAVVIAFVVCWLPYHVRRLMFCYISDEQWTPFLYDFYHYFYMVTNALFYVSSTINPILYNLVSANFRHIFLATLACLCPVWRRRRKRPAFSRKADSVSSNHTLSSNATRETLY

[1] = cited from earlier work
[2] = in vivo; cited from earlier work
[3] = Hypothermia studies in the male Sprague-Dawley rat with various compounds; format: in vivo; conditions: dose 1 mg/kg in saline
Protocol: Hypothermia studies in the male Sprague-Dawley rat were conducted using different compounds (dosed in saline) and the results are summarized in Table 1. For each compound, the maximum decrease in temperature (Δtemp) and the area under the curve for hypothermia versus a saline control (AUC) were measured.

[4] = rat, in vivo
Protocol: (§1) In laboratory tests, catalepsy is characterized by the inability of an animal to correct its position after placement in an unnatural posture. Catalepsy tests may be greatly influenced by a number of variables. These include stress-induced inhibition of catalepsy caused by a new environment and the contribution of learned “pseudo-catalepsy” that may result upon repeated measures with the same animal. To circumvent these potential confounding factors, tests are performed on an animal only once in a quiet, controlled environment,
(§2) Finally, the bar test was utilized to measure catalepsy as a predictor of EPSEs in humans.

Catalepsy (bar test) = conditions: 5 mg/kg
Protocol: as §1, §2

Compound: N-Me-L-Arg-L-Lys-L-Pro-L-neoTyr-t-Leu-L-Leu [NT69L]
- pKd (NTR1): 8.81
- hypothermic effect ([1]; 1 mg/kg injection, 90 min post-injection): −5.3 °C
- effect of chronic administration on hypothermic effect ([1]; chronic administration): tolerance to its hypothermic effect
- hypothermic response after oral administration ([1]; oral): only a slight hypothermic response
- hyperactivity induced by cocaine and d-amphetamine [2]: attenuated hyperactivity

Compound: N-Me-L-Arg-L-Lys-L-Pro-L-Trp-t-Leu-L-Leu ([NMeR]KPW[Tle]L) [SEQ ID NO:2, reference compound]
- AUC (area under the curve for hypothermia versus saline control) [3]: 700
- Δtemp (maximum decrease in temperature) [3]: −4.2
- loss of binding affinity at NTR1 (NTR1): 700 fold
- central activity after oral administration ([1]; oral): not able to elicit central activity

Compound: O=C(CCCN1CCC(O)(c2ccc(Cl)cc2)CC1)c1ccc(F)cc1 [Haloperidol]
- duration of induced catalepsy [4]: greater than 30 sec

Compound: CC(C)C[C@H](NC(=O)[C@@H](NC(=O)[C@H](Cc1ccc(O)cc1)NC(=O)[C@@H]1CCCN1C(=O)[C@H](CCCNC(=N)N)NC(=O)[C@@H](C)CCCCCN)C(C)(C)C)C(=O)O [ABS-201] (X1-RPY[Tle]L-OH)
- catalepsy after peripheral administration (Catalepsy (bar test)): does not induce catalepsy
